Test results as given in patent US6686369B1, “α-hydrdroxylic acid derivatives, their production and use” (Abbott GmbH & Co., KG, priority 1996, dated 2004).

Assays:
[1] = biological target: T1, cloned human ETA receptor (Homo sapiens, UniProt P25101); assay: ETA receptor binding assay ([125I]-ET1, membranes of ETA receptor-expressing CHO cells); settings: CHO cell membranes, 25 pM [125I]-ET1, 25° C.
T1 construct: expressed in transfected cells; host or cells: CHO cells
T1 sequence (P25101 21-427): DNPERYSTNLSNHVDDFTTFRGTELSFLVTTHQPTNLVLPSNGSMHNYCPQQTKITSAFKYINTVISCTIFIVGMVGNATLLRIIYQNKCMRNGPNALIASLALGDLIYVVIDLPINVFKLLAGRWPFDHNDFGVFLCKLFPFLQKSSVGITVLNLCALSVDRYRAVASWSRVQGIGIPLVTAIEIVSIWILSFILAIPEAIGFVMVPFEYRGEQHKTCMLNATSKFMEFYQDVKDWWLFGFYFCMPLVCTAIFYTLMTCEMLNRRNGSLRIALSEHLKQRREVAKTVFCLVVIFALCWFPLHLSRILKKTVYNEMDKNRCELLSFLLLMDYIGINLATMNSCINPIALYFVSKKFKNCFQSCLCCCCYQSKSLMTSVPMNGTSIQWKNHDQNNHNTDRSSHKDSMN
Procedure: (§1) For binding studies, cloned human ETA receptor-expressing CHO cells and guinea-pig cerebellar membranes with >60% ETB relative to ETA receptors were employed.
The ETA receptor-expressing CHO cells were grown in F12 medium with 10% fetal calf serum, 1% glutamine, 100 U/ml penicillin and 0.2% streptomycin (Gibco BRL, Gaithersburg, Md., USA). After 48 h, the cells were washed with PBS and incubated with 0.05% trypsin-containing PBS for 5 min. After neutralization with F12 medium, the cells were collected by centrifugation at 300×g. For cell lysis, the pellet was briefly washed with lysis buffer (5 mM Tris-HCl, pH 7.4 with 10% glycerol) and then incubated at a concentration of 10^7 cells/ml of lysis buffer at 4° C. for 30 min. The membranes were centrifuged at 20,000×g for 10 min, and the pellet was stored in liquid nitrogen.
(§2) For the ETA and ETB receptor binding assays, the membranes were suspended in incubation buffer (50 mM Tris-HCl, pH 7.4 with 5 mM MnCl2, 40 μg/ml bacitracin and 0.2% BSA) at a concentration of 50 μg of protein per assay mixture and incubated at 25° C. with 25 pM [125I [sic]]-ET1 (ETA receptor assay) or 25 pM [125I [sic]]-RZ3 (ETB receptor assay) in the presence and absence of test substance. The nonspecific binding was determined with 10^−7 M ET1. Filtration through GF/B glass fiber filters (Whatman, England) in a Skatron cell collector (Skatron, Lier, Norway) after 30 min separated the free and the bound radioligand, and the filters were washed with ice-cold Tris-HCl buffer, pH 7.4 with 0.2% BSA. The radioactivity collected on the filters was quantified using a Packard 2200 CA liquid scintillation counter.

[2] = biological target: T2, ETB receptor (Cavia porcellus, UniProt H0VTF3); assay: ETB receptor binding assay ([125I]-RZ3, guinea-pig cerebellar membranes); settings: 25 pM [125I]-RZ3, 25° C.
T2 construct: Guinea-pig cerebella were homogenized in a Potter-Elvejhem homogenizer; from tissue; host or cells: guinea-pig cerebellum membranes
T2 sequence (H0VTF3 27-415): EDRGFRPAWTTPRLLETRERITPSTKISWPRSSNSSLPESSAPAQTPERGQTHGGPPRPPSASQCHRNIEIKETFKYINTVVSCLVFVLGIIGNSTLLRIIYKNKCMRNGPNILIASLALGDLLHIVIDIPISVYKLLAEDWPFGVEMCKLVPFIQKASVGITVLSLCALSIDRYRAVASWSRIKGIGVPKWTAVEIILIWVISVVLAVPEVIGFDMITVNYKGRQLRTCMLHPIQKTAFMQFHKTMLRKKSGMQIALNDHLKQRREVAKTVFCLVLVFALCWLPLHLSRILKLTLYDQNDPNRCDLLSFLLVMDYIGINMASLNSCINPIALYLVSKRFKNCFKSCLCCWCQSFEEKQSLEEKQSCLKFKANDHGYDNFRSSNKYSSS
Procedure: as §1
Guinea-pig cerebella were homogenized in a Potter-Elvejhem homogenizer and obtained by differential centrifugation at 1000×g for 10 min and repeated centrifugation of the supernatant at 20,000×g for 10 min.
as §2

Ki [1]	Ki [2]	Structure (SMILES)
4 nM	540 nM	CCC(c1ccccc1)(c1ccccc1)C(Oc1nc(C)cc(C)n1)C(=O)O (centres unmarked) [Compound I-15]
20 nM	1400 nM	CCC(c1ccccc1)(c1ccccc1)C(Oc1nc(OC)cc(OC)n1)C(=O)O (centres unmarked) [Compound I-11]
4 nM	325 nM	Cc1cc(C)nc(OC(C(=O)O)C(C)(c2ccccc2)c2ccccc2)n1 (racemic) [Compound I-3, 2-(4,6-Dimethyl-2-pyrimidinyloxy)-3,3-diphenylbutyric Acid]
3.5 nM	290 nM	COc1cc(C)nc(OC(C(=O)O)C(C)(c2ccccc2)c2ccccc2)n1 (centres unmarked) [Compound I-2]
4 nM	250 nM	CCC(c1ccccc1)(c1ccccc1)C(Oc1nc(C)cc(OC)n1)C(=O)O (centres unmarked) [Compound I-12]
25 nM	950 nM	COc1cc(OC)nc(OC(C(=O)O)C(C)(c2ccccc2)c2ccccc2)n1 (centres unmarked) [Compound I-1]
5 nM	445 nM	COc1cc(C)nc(OC(C(=O)O)C(CO)(c2ccccc2)c2ccccc2)n1 (centres unmarked) [Compound I-20]
